± gives the standard deviation of the averaged measurements.
Assays:
[1] = system: Homo sapiens (human subject panel, olfactory perception); assay: perceived odor pleasantness rating (rating 0-100); higher = more pleasant
Protocol: (§1)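 Human olfactory psychophysics. 55 healthy subjects (after excluding 6 low performers) sniffed 1 mL of each odorant diluted in paraffin oil (vials, two dilutions per molecule, 20 molecules presented twice). Each subject rated intensity, pleasantness and familiarity on a 0-100 slider, starting at 50 and required to move. Ratings were given only when the subject reported detecting a smell; per-subject ratings are averaged over subjects.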

[2] = system: Homo sapiens (human subject panel, olfactory perception); assay: perceived odor familiarity rating (rating 0-100); higher = more familiar
Protocol: as §1

[3] = system: Homo sapiens (human subject panel, olfactory perception); assay: perceived odor intensity rating (rating 0-100); higher = stronger perceived smell
Protocol: as §1

[4] = odor dilution in paraffin oil: 1/10
[5] = odor dilution in paraffin oil: 1/1,000
[6] = odor dilution in paraffin oil: 1/100,000
[7] = odor dilution in paraffin oil: 1/10,000,000

Row | Structure (SMILES) | perceived odor pleasantness rating [1, 4] | perceived odor pleasantness rating [1, 5] | perceived odor familiarity rating [2, 4] | perceived odor familiarity rating [2, 5] | perceived odor intensity rating [3, 4] | perceived odor intensity rating [3, 5] | perceived odor pleasantness rating [1, 6] | perceived odor familiarity rating [2, 6] | perceived odor intensity rating [3, 6] | perceived odor pleasantness rating [1, 7] | perceived odor familiarity rating [2, 7] | perceived odor intensity rating [3, 7]
1 | CCCCC(C)CCC(=O)O (racemic) [(±)-4-Methyloctanoic acid] | 27.4 ± 25 | 29 ± 20 | 41.7 ± 32 | 48.6 ± 30 | 72.5 ± 25 | 67.2 ± 25 | – | – | – | – | – | –
2 | NC(Cc1ccccc1)C(=O)O (racemic) [DL-Phenylalanine (replicate)] | 44.6 ± 25 | 50.4 ± 23 | 48.2 ± 29 | 39.2 ± 26 | 66.3 ± 24 | 39.2 ± 29 | – | – | – | – | – | –
3 | NC(Cc1ccccc1)C(=O)O (racemic) [DL-Phenylalanine] | 38.2 ± 26 | 51.4 ± 27 | 43.4 ± 31 | 41.9 ± 29 | 70 ± 24 | 35.2 ± 29 | – | – | – | – | – | –
4 | O=C(O)C(O)C(O)C(=O)O (racemic) [DL-Tartaric acid] | 48.3 ± 20 | 52.1 ± 19 | 40.5 ± 25 | 26.4 ± 28 | 30.6 ± 30 | 26.4 ± 30 | – | – | – | – | – | –
5 | C=C(C)C1CC=C(C)C(=O)C1 (single isomer, unassigned; (-)) [(-)-Carvone] | 78.6 ± 16 | 78.2 ± 19 | 81.2 ± 24 | 77.9 ± 25 | 84.3 ± 15 | 72.6 ± 20 | – | – | – | – | – | –
6 | C=C1CCC2CC1C2(C)C (single isomer, unassigned; (-)) [(-)-beta-Pinene] | 50.5 ± 30 | 54.8 ± 22 | 62.1 ± 31 | 47.8 ± 29 | 74.2 ± 22 | 32.2 ± 31 | – | – | – | – | – | –
7 | CC(C)=CCCC(C)CCO (single isomer, unassigned; (-)) [(-)-citronellol] | – | 53.5 ± 30 | – | 57.9 ± 31 | – | 71.5 ± 27 | 61.3 ± 22 | 49.6 ± 28 | 41.6 ± 33 | – | – | –
8 | COc1cccc(OC)c1 [1,3-Dimethoxybenzene] | – | 49.7 ± 26 | – | 54.1 ± 26 | – | 68.4 ± 22 | 45.8 ± 28 | 33.2 ± 27 | 32.6 ± 30 | – | – | –
9 | O=C(Cc1ccccc1)Cc1ccccc1 [1,3-Diphenyl-2-propanone] | – | 32.7 ± 29 | – | 49.7 ± 34 | – | 78.1 ± 20 | 43 ± 27 | 48.1 ± 30 | 35.4 ± 28 | – | – | –
10 | SCCCCCCS [1,6-Hexanedithiol] | – | – | – | – | – | – | 24.9 ± 26 | 51.5 ± 33 | 74.8 ± 24 | 40.1 ± 25 | 36.8 ± 29 | 33.8 ± 34
11 | CC12CCC(CC1)C(C)(C)O2 [1,8-cineole] | – | 62.5 ± 24 | – | 69.7 ± 25 | – | 70.1 ± 24 | 61.5 ± 25 | 53.5 ± 30 | 45.5 ± 29 | – | – | –
12 | c1coc(Cn2cccc2)c1 [1-Furfurylpyrrole] | – | 28.7 ± 24 | – | 40.7 ± 32 | – | 76.3 ± 22 | 46.8 ± 19 | 34.3 ± 25 | 30.9 ± 29 | – | – | –
13 | C=CC(O)CCCC (centres undefined) [1-Hepten-3-ol] | – | 24.3 ± 25 | – | 41 ± 31 | – | 83.2 ± 18 | 37.3 ± 26 | 44.4 ± 32 | 53.7 ± 31 | – | – | –
14 | CCCCCCCCCCCCCCCCO [1-Hexadecanol] | 43 ± 24 | 35.4 ± 24 | 40.1 ± 30 | 42.6 ± 27 | 43.5 ± 31 | 35.8 ± 26 | – | – | – | – | – | –
15 | COc1cc(C)ccc1C(C)C [1-Methyl-3-methoxy-4-isopropylbenzene] | – | 43.8 ± 21 | – | 51.6 ± 30 | – | 45.5 ± 28 | 47.5 ± 18 | 42.9 ± 35 | 23.1 ± 25 | – | – | –
16 | C=CC(O)CCCCC (centres undefined) [1-Octen-3-ol] | – | 40.3 ± 27 | – | 45.4 ± 32 | – | 66.5 ± 26 | 42.2 ± 20 | 39.4 ± 27 | 37.7 ± 30 | – | – | –
17 | C=CC(CCCCC)OC(C)=O (centres undefined) [1-Octen-3-yl acetate] | – | 34.1 ± 22 | – | 35.2 ± 29 | – | 55.9 ± 29 | 42.9 ± 24 | 32.8 ± 27 | 26.4 ± 26 | – | – | –

Row | Structure (SMILES) | perceived odor pleasantness rating [1, 4] | perceived odor pleasantness rating [1, 5] | perceived odor familiarity rating [2, 4] | perceived odor familiarity rating [2, 5] | perceived odor intensity rating [3, 4] | perceived odor intensity rating [3, 5] | perceived odor pleasantness rating [1, 6] | perceived odor familiarity rating [2, 6] | perceived odor intensity rating [3, 6] | perceived odor pleasantness rating [1, 7] | perceived odor familiarity rating [2, 7] | perceived odor intensity rating [3, 7]
18 | C=CCCCCCC [1-Octene] | – | 39.1 ± 24 | – | 42.9 ± 28 | – | 39.7 ± 29 | 48 ± 26 | 45.6 ± 31 | 33.6 ± 30 | – | – | –
19 | C=CC(O)CC (centres undefined) [1-Penten-3-ol] | – | 40.7 ± 29 | – | 43 ± 35 | – | 53 ± 32 | 43.3 ± 22 | 34.7 ± 24 | 31.3 ± 32 | – | – | –
20 | CCC(O)c1ccccc1 (centres undefined) [1-Phenyl-1-propanol] | – | 54 ± 20 | – | 39.2 ± 31 | – | 36.6 ± 32 | 48.9 ± 19 | 25.5 ± 26 | 15.2 ± 22 | – | – | –
21 | CCCCCCCCCCCO [1-undecanol] | 41 ± 28 | 41.9 ± 28 | 51 ± 32 | 37.1 ± 30 | 74.9 ± 24 | 42.8 ± 32 | – | – | – | – | – | –
22 | c1coc(CSCc2ccco2)c1 [2,2'-(Thiodimethylene)difuran] | – | 20.1 ± 23 | – | 44.9 ± 32 | – | 77.1 ± 24 | 26.9 ± 24 | 52 ± 32 | 73.5 ± 22 | – | – | –
23 | Cc1nc(C)c(C)nc1C [2,3,5,6-Tetramethylpyrazine] | 28.7 ± 23 | 49.4 ± 22 | 41.3 ± 31 | 35.7 ± 28 | 79.1 ± 18 | 25.8 ± 25 | – | – | – | – | – | –
24 | CCc1nccnc1CC [2,3-Diethylpyrazine] | – | – | – | – | – | – | 34.3 ± 24 | 55 ± 28 | 70.7 ± 26 | 40.3 ± 18 | 44.9 ± 28 | 30.4 ± 29
25 | CC(=O)C(C)=O [2,3-butanedione] | – | 24.5 ± 19 | – | 49.3 ± 34 | – | 81.7 ± 19 | 35.9 ± 22 | 50 ± 29 | 55.8 ± 28 | – | – | –
26 | Cc1nc(C)c(C)s1 [2,4,5-Trimethylthiazole] | – | – | – | – | – | – | 33.8 ± 26 | 48.4 ± 31 | 67.9 ± 26 | 44.2 ± 27 | 46.4 ± 31 | 35.2 ± 31
27 | OC1CSC(O)CS1 (centres undefined) [2,5-Dihydroxy-1,4-dithiane] | 16.9 ± 25 | 13.8 ± 22 | 50.9 ± 35 | 51.5 ± 32 | 86.4 ± 16 | 88.4 ± 16 | – | – | – | – | – | –
28 | COC1=C(C)OC(C)C1=O (centres undefined) [2,5-Dimethyl-4-methoxy-3(2H)-furanone] | – | 26 ± 19 | – | 45.4 ± 33 | – | 74.8 ± 24 | 28.2 ± 23 | 44.1 ± 28 | 56.3 ± 31 | – | – | –
29 | Cc1ccc(C)[nH]1 [2,5-Dimethylpyrrole] | – | 53 ± 27 | – | 62 ± 28 | – | 71.4 ± 23 | 48.2 ± 26 | 48 ± 31 | 50.6 ± 30 | – | – | –
30 | Cc1cnc(C)cn1 [2,5-dimethyl pyrazine] | – | – | – | – | – | – | 38.5 ± 21 | 43.8 ± 30 | 50.3 ± 30 | 48.4 ± 24 | 37.1 ± 28 | 29.3 ± 31
31 | Cc1cccc(C)n1 [2,6-Dimethylpyridine] | – | 29.8 ± 24 | – | 47.3 ± 32 | – | 78.1 ± 20 | 35.3 ± 23 | 42.5 ± 31 | 54.1 ± 32 | – | – | –
32 | CCC(C)c1nccs1 (centres undefined) [2-(1-Methylpropyl)thiazole] | – | 25.7 ± 25 | – | 41.3 ± 32 | – | 83.9 ± 17 | 31.8 ± 23 | 43.9 ± 31 | 55.6 ± 31 | – | – | –
33 | CSCCO [2-(Methylthio)ethanol] | – | 34.1 ± 31 | – | 53.8 ± 34 | – | 77.7 ± 23 | 40 ± 18 | 37.4 ± 31 | 32.3 ± 29 | – | – | –
34 | CC(=O)c1ncc(C)nc1C [2-Acetyl-3,5(6)-dimethylpyrazine] | – | 31.5 ± 32 | – | 58.6 ± 36 | – | 85.4 ± 17 | 49.4 ± 29 | 58.1 ± 31 | 65.1 ± 26 | – | – | –
